Results reported in ChEMBL document CHEMBL1144860, “Spermicidal bacteriocins: lacticin 3147 and subtilosin A” (2008).
The source made the active and inactive calls. The rule behind the calls is not given here.

Tests used:
[1] = tested on: Spermatozoa; assay: Spermicidal activity against boar sperm at 50 ug/mL assessed as time required for sperm death; type: functional, cell-based; details: Sus scrofa
[2] = tested on: Spermatozoa; assay: Spermicidal activity against rat sperm at 200 ug/mL assessed as time required for sperm death; type: functional
[3] = tested on: Spermatozoa; assay: Spermicidal activity against bovine spermatozoa at 800 ug/mL assessed as time required for sperm death; type: functional, Bos taurus
[4] = tested on: Spermatozoa; assay: Spermicidal activity against boar sperm at 200 ug/mL assessed as time required for sperm death; type: functional, Sus scrofa
[5] = tested on: Spermatozoa; assay: Spermicidal activity against horse sperm at 800 ug/mL assessed as time required for sperm death; type: functional, Equus caballus

| Structure (SMILES) | Activity [1] | Time [2] | Time [3] | Time [4] | Time [5] |
| --- | --- | --- | --- | --- | --- |
| C/C=C(\NC(=O)C(=O)CC)C(=O)N1CCC[C@H]1C(=O)N[C@@H](C)C(=O)N/C(=C\C)C(=O)N1CCC[C@H]1C(=O)N[C@@H](C)C(=O)N[C@H](C(=O)N[C@H](C)C(=O)N[C@H](C(=O)N[C@@H](CC(C)C)C(=O)N[C@H](C)C(=O)N[C@@H](C)C(=O)N[C@@H](Cc1ccc(O)cc1)C(=O)N[C@H](C(=O)N[C@H]1CSC[C@H](C(=O)N2CCC[C@H]2C(=O)N[C@H]2C(=O)N[C@@H]([C@@H](C)O)C(=O)N[C@@H](CCCCN)C(=O)N[C@H](C(=O)N[C@H]3C(=O)N[C@@H](CCCNC(=N)N)C(=O)N[C@@H](C)C(=O)N[C@@H](C(=O)O)CSC3C)CSC2C)NC(=O)[C@H]([C@@H](C)O)NC(=O)[C@H](CC(N)=O)NC(=O)[C@H]([C@@H](C)O)NC1=O)[C@@H](C)CC)[C@@H](C)CC)[C@@H](C)CC (stereo not given in full) | Active | – | – | – | – |
| C/C=C(\NC(=O)[C@H](CC(N)=O)NC(=O)/C(=C/C)NC(=O)[C@H]1CSC[C@H](N)C(=O)N1)C(=O)N[C@@H](Cc1ccccc1)C(=O)N[C@H](C)C(=O)N[C@@H](CC(C)C)C(=O)N[C@@H]1CSC[C@@H](C(=O)N[C@H]2C(=O)N[C@@H](CC(C)C)C(=O)N[C@H]3C(=O)N[C@@H](Cc4cnc[nH]4)C(=O)N[C@@H](CCC(=O)O)C(=O)N[C@@H](CS[C@H]2C)C(=O)N[C@@H](CCSC)C(=O)N[C@@H](C)C(=O)N[C@@H](Cc2c[nH]c4ccccc24)C(=O)N[C@H](C(=O)N[C@@H](CCCCN)C(=O)O)CS[C@H]3C)NC(=O)[C@H](Cc2c[nH]c3ccccc23)NC(=O)[C@H](C)NC(=O)CNC(=O)[C@H](CC(N)=O)NC(=O)[C@H](CC(N)=O)NC(=O)CNC(=O)[C@H](Cc2c[nH]c3ccccc23)NC(=O)[C@H](Cc2ccc(O)cc2)NC(=O)[C@H](CC(=O)O)NC1=O | – | 2.3 min | 16.6 min | 2.5 min | 12.7 min |
| C/C=C(\NC(=O)[C@H](CC(N)=O)NC(=O)/C(=C\C)NC(=O)[C@H](C)NC(=O)[C@H](C)N)C(=O)N[C@@H](Cc1ccccc1)C(=O)N[C@H](C)C(=O)N[C@@H](CC(C)C)C(=O)N[C@@H]1CSC[C@H](C(=O)N[C@H]2C(=O)N[C@@H](CC(C)C)C(=O)N[C@H]3C(=O)N[C@@H](Cc4cnc[nH]4)C(=O)N[C@@H](CCC(=O)O)C(=O)N[C@@H](CCS[C@H]2C)C(=O)N[C@@H](CCSC)C(=O)N[C@@H](C)C(=O)N[C@@H](Cc2c[nH]c4ccccc24)C(=O)N[C@H](C(=O)N[C@@H](CCCCN)C(=O)O)CSC3C)NC(=O)[C@H](Cc2c[nH]c3ccccc23)NC(=O)[C@H](C)NC(=O)CNC(=O)[C@H](CC(N)=O)NC(=O)[C@H](CC(N)=O)NC(=O)CNC(=O)[C@H](Cc2c[nH]c3ccccc23)NC(=O)[C@H](Cc2ccc(O)cc2)NC(=O)[C@H](CC(=O)O)NC1=O (stereo not given in full) | Active | – | – | – | – |
| C/C=C(\NC(=O)C(=O)CC)C(=O)N1CCC[C@H]1C(=O)N[C@@H](C)C(=O)N/C(=C\C)C(=O)N1CCC[C@H]1C(=O)N[C@@H](C)C(=O)N[C@H](C(=O)N[C@H](C)C(=O)N[C@H](C(=O)N[C@@H](CC(C)C)C(=O)N[C@H](C)C(=O)N[C@@H](C)C(=O)N[C@@H](Cc1ccc(O)cc1)C(=O)N[C@H](C(=O)N[C@@H]1CSC[C@@H](C(=O)N2CCC[C@H]2C(=O)N[C@H]2C(=O)N[C@@H]([C@@H](C)O)C(=O)N[C@@H](CCCCN)C(=O)N[C@H](C(=O)N[C@H]3C(=O)N[C@@H](CCCNC(=N)N)C(=O)N[C@@H](C)C(=O)N[C@H](C(=O)O)CSC3C)CSC2C)NC(=O)[C@H]([C@@H](C)O)NC(=O)[C@H](CC(N)=O)NC(=O)[C@H]([C@@H](C)O)NC1=O)[C@@H](C)CC)[C@@H](C)CC)[C@@H](C)CC (stereo not given in full) | – | 2 min | 2.5 min | 1.8 min | 4.8 min |
